# “Also recorded” adds a separate entry of the source.
# What was measured:
# [1] = system: primordial germ cells; test: Primordial germ cell migration, in situ hybridization with nanos probe; type: in vivo, zebrafish; conditions: 10 μM aplexone
# Description: (§1) A,B,C, Overall phenotype of control and aplexone-treated embryos at 30 hpf. A′,B′,C′, Vasculature in trunk. […] D-E, Germ cells in control and aplexone treated embryos at 24 hpf were detected by in situ hybridization using the nanos probe. F, The percentage of embryos with ectopic primordial germ cells in control (n=26), 5 μM (n=13), and 10 μM (n=14) aplexone-treated embryos. […] I, The percentage of embryos with cardia bifida in control (n=16) and 10 μM-(n=17), 20 μM-(n=17) and 30 μM-(n=18) aplexone-treated embryos.
# [2] = system: cardiomyocytes; test: Cardiomyocyte migration / heart tube formation in Tg(myl7:GFP) embryos; type: in vivo, zebrafish; conditions: 30 μM aplexone
# Description: as §1
# [3] = system: HMGCR pathway; test: Quantitative RT-PCR of aplexone-treated embryos; type: in vivo, zebrafish; conditions: qPCR, GAPDH-normalized
# Description: (§2) Embryos at the 5-somite stage were treated with 0.4% DMSO (control) or 10 μM of aplexone in 0.4% DMSO and total RNA was isolated using the RNAeasy micro kit (Qiagen) at 30 hpf. Microarray analysis was performed in triplicate using the Affymetrix Zebrafish GeneChip, representing 15,617 genes. Synthesis and labeling of antisense RNA was performed as recommended by the array manufacturer using kits from Invitrogen for double-stranded cDNA synthesis, Enzo Life Sciences for transcription and labeling of antisense RNA and Affymetrix for probe purification and hybridization controls. Microarray hybridization data were analyzed using scripts written in the statistical programming language R (Team, 2009). Differentially expressed genes (DEGs) were identified using a linear model and multiple testing correction from the limma package (Smyth, 2004). The expression values were obtained using the robust multi array algorithm (Irizarry et al., 2003).
# Quantitative RT-PCR was performed as follows. First strand cDNA was synthesized using the SuperScript™ first-strand synthesis system for RT-PCR (Invitrogen) and relative expression levels of genes were determined using iQ SYBR Green Supermix and an iCycler (Bio-Rad Laboratories). GAPDH was used for normalization.
# [4] = system: HUAECs; test: Wound healing assay, HUAECs; type: cell-based, human
# Description: HUVECs and HUAECs were purchased from VEC Technologies. Cells were cultured on 0.1% Gelatin-coated dishes in Medium 199 (Mediatech), supplemented with 15% Fetal Bovine Serum (ATCC), 48 μg/mL Endothelial Cell Growth Supplement (BD Biosciences), 64 μg/mL Heparin Sulfate (Sigma-Aldrich), 0.9 mM Sodium Pyruvate (Mediatech), 100 IU/ml Penicillin (Mediatech), and 100 μg/ml Streptomycin (Mediatech).
# For the wound healing assay, cells were cultured in 24-well plates to confluence before being subjected to a 2-hour pre-treatment with either DMSO, aplexone, Rockout (Calbiochem) or NSC 23766 (TOCRIS Bioscience). After the pre-treatment, the monolayer of endothelial cells was scratched and the closure of the wound was measured after 8 hr. The images of wounds were taken at 0 and 8 hr after scratching and the area of the wound was measured using Image J. The migration distance (the width of the wound) was calculated by dividing the area by the length of the wound. Cells below passage seven were used in this study.
# [5] = system: HMGCR pathway; test: Cholesterol assay in embryo lysate (Amplex Red); type: in vivo, zebrafish
# Description: The yolk was removed from embryos by vortexing in calcium-free Ringer's solution with 1 mM EDTA at 4° C. The embryos were then pelleted and washed with fresh calcium free Ringer's solution 5 times before being resuspended in cholesterol assay reaction buffer and were then lysed by sonication using a Sonifier 450 (Branson). Cholesterol levels in the embryo lysate were measured with an Amplex Red Cholesterol Assay Kit (Invitrogen) and Flex station II (Bucher Biotec). The total protein concentration of the embryo lysate was measured using a DC protein assay (Bio-Rad Laboratories) and SpectraMax plus (Molecular Devices).
# [6] = system: ephrinB2a, ephB4 and flt4; test: In situ hybridization for arterial and venous markers; type: in vivo, zebrafish; conditions: 10 μM from 10 hpf, fixed at 24 hpf
# Description: Untreated control embryos (A, C, E and A′, C′, E′) and embryos treated with 10 μM aplexone beginning at 10 hpf (B, D, F and B′, D′, F′) were fixed at 24 hpf. Arterial and venous fates were analyzed by in situ hybridization using ephrinB2a (A,A′,B,B′), ephB4 (C,C′,D,D′) and flt4 (E,E′,F,F′) probes. Arrowhead, dorsal aorta. Embryos were analyzed at higher magnification in the trunk in A′-F′, with regions of interest indicated by black boxes in A-F. Arrow, posterior cardinal vein.
# To understand whether angiogenesis from arterial and venous ECs are under different genetic controls we screened a collection of small molecules for compounds that preferentially suppress angiogenesis from exclusively one cell type. In this screen, we used the primary ISV sprouts as the readout for arterial-derived angiogenesis, and the CVP and secondary ISV sprouts as indicators of venous-derived angiogenesis. We found one synthetic compound, aplexone, which has a lineage-dependent effect on angiogenesis. The spatial and temporal development of primary ISVs in the trunk is indistinguishable between 2-day-old control and aplexone-treated embryos (FIG. 1L-M′). […] Secondary ISVs are also absent in these embryos (FIG. 1L-M′).
# [7] = system: HMGCR pathway; test: Microarray expression profiling of aplexone-treated embryos (Affymetrix Zebrafish GeneChip); type: in vivo; conditions: 10 μM, RNA at 30 hpf
# Description: as §2
smiles,measurement,setting,value
CC(=O)C1=CCC(c2ccccc2)N(S(=O)(=O)c2ccc(C)cc2)C1 (stereo not shown) [aplexone],germ cell migration,[1],defect in germ cell migration
same,fusion of cardiac primordia / cardiomyocyte migration to midline,[2],defects in the fusion of the bilaterally positioned cardiac primordia; also recorded: fail to migrate to midline
same,fold change 3-hydroxy-3-methylglutaryl-Coenzyme A reductase (HMGCR),[3],6.7 fold
same,fold change 3-hydroxy-3-methylglutaryl-Coenzyme A synthase 1 (HMGCS),[3],2.8 fold
same,fold change 7-dehydrocholesterol reductase (DHCR7),[3],2.5 fold
same,"fold change cytochrome P450, family 51 (CYP51)",[3],4.4 fold
same,fold change farnesyl diphosphate synthetase (FDPS),[3],2.2 fold
same,fold change insulin induced gene 1 (INSIG),[3],5.1 fold
same,fold change sterol-C4-methyl oxidase-like (SC4MOL),[3],5.6 fold
same,HUAEC migration,"[4]; 5 μM aplexone, 8 hr",unaffected
same,impediment in HUAEC migration,"[4]; 10 μM aplexone, p<0.05",10%
same,efficiency of cholesterol reduction compared with atorvastatin,[5]; higher concentration (40 uL),more efficient
same,efficiency of cholesterol reduction compared with atorvastatin,[5]; lower concentration (10 uL),as efficient as atorvastatin
same,embryonic cholesterol levels,[5]; relative to 0.4% DMSO control,reduced embryonic cholesterol levels to a comparable degree as treatment with atorvastatin; also recorded: reduce cholesterol level significantly
same,"arterial (ephrin B2a) and venous (flt4, ephB4) marker expression",[6],could not distinguish aplexone-treated embryos from control embryos
same,fold change 3-hydroxy-3-methylglutaryl-Coenzyme A synthase 1 (HMGCS),[7],2.0 fold
same,fold change Krueppel-like factor 11 (TIEG-2),[7],2.1 fold
same,fold change carbonyl reductase 1-like,[7],2.1 fold
same,"fold change coronin, actin binding protein, 1A",[7],−2.1 fold
same,"fold change cytochrome P450, family 51 (CYP51)",[7],2.8 fold
same,fold change farnesyl diphosphate synthetase (FDPS),[7],2.0 fold
same,fold change fatty acid desaturase 2,[7],2.4 fold
same,fold change glutamate dehydrogenase 1a,[7],2.2 fold
same,fold change glutathione S-transferase,[7],3.2 fold
same,fold change glutathione reductase like,[7],2.2 fold
same,fold change insulin induced gene 1 (INSIG),[7],2.6 fold
same,fold change insulin-like growth factor binding protein 1,[7],2.1 fold
same,fold change lymphocyte cytosolic plastin 1,[7],−2.7 fold
same,fold change lysozyme,[7],−2.7 fold
same,fold change myosin regulatory light chain interacting protein,[7],−2.1 fold
same,fold change nephrosin,[7],−2.4 fold
same,fold change selenoprotein W,[7],3.1 fold
same,fold change sterol-C4-methyl oxidase-like (SC4MOL),[7],2.0 fold
same,fold change sulfotransferase,[7],3.0 fold
